The text below walks through data of publication PMC7004565, “Nucleotide inhibition of the pancreatic ATP-sensitive K^+ channel explored with patch-clamp fluorometry” (eLife, 2020).

SMILES strings stand for the structures. “And” between values parts separate entries of the source, which are not always exact repeats. Identical values can stand only once. Like-named read-outs stand apart in the source and are kept apart here.

One assay deals with T1, Kir6.2*-GFP + SUR-K205E (Homo sapiens, UniProt Q14654).
T1 construct: ANAP labelling is specific and only full-length Kir6.2 is expressed at the cell membrane; expressed in transfected cells; host or cells: HEK-293T
T1 sequence (Q14654 whole entry, stated change not applied): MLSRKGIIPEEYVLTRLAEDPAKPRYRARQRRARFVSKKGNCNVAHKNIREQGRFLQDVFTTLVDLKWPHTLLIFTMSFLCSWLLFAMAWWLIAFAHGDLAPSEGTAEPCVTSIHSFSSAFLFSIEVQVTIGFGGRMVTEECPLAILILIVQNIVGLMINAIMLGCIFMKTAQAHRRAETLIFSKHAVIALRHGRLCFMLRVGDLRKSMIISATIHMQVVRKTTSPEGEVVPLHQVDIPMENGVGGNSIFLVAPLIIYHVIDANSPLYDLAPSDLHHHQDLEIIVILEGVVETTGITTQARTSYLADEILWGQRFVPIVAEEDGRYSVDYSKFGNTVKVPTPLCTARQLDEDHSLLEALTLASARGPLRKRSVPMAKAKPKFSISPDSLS
T1 sequence (Q09428 whole entry K205E partner): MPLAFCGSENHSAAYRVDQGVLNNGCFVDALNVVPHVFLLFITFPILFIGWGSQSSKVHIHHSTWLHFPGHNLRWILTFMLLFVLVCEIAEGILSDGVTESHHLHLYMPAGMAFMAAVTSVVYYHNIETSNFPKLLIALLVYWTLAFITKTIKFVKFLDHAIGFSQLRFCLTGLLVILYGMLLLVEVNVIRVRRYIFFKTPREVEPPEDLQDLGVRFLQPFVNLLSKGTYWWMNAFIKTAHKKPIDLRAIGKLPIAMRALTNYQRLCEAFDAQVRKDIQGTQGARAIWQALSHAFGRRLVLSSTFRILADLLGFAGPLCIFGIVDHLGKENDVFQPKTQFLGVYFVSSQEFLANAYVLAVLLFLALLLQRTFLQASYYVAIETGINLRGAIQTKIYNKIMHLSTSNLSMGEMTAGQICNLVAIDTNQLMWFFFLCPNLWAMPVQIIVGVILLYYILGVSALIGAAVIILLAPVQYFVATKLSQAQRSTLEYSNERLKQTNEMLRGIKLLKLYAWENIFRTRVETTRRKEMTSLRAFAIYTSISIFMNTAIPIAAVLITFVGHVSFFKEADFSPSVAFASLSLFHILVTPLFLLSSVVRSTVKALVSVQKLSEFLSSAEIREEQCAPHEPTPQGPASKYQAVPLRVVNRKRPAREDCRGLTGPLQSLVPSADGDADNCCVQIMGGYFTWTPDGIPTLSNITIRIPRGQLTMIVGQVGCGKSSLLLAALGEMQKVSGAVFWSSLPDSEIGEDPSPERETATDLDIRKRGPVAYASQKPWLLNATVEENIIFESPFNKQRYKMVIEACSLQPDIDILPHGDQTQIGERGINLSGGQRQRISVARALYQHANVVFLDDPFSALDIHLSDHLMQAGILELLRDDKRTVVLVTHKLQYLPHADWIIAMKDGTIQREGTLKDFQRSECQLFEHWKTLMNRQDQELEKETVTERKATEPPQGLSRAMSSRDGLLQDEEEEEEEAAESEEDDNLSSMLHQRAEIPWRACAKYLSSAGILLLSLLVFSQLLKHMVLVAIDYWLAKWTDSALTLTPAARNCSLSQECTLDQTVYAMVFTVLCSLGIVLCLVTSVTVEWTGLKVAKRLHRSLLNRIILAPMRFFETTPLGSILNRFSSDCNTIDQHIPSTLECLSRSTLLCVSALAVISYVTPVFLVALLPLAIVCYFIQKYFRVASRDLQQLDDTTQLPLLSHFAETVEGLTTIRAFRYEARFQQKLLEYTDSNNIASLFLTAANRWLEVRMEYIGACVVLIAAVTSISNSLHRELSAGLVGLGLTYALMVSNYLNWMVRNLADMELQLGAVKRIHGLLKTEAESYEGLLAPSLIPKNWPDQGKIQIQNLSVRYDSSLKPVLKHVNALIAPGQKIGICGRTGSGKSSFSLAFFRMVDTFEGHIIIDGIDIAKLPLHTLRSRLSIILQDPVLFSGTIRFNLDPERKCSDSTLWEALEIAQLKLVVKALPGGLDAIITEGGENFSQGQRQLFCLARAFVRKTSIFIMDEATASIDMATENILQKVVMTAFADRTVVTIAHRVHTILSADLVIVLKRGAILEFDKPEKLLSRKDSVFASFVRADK
Description: Bayesian MWC-type model fits to combined patch-clamp fluorometry data. The assay is classed as biochemical. The following applies: for Kd: read-out: KA (intrinsic binding affinity to the closed state) (converted). An excerpt:
(§1) Our simultaneous binding and current measurements were well fit with a Monod-Wyman-Changeux (MWC)-type model (Figure 2D,E; [Monod et al., 1965]) which has been previously proposed to explain KATP channel inhibition ([Enkvetchakul and Nichols, 2003]; [Craig et al., 2008]; [Vedovato et al., 2015]). In our MWC-type model, each ligand binding event ( KA ) is independent and each bound ligand favours the closed state by the same factor ( D ). Simultaneous measurement of binding (fluorescence) and gating (current) allowed us to obtain well constrained fits to our model. To obtain free parameter ( L , KA , D ) estimates and verify that each parameter was well and uniquely determined, we employed a Bayesian Markov chain Monte Carlo (MCMC) method previously employed by [Hines et al. (2014)]. Using this approach, we constructed posterior probability distributions for the free parameters of our MWC-type model (Figure 2F, Table 3). […] Our estimate of L was quite low and broadly distributed. We repeated our fits with L fixed to a value consistent with previous single channel measurements (0.8, Popen=0.45; [John et al., 1998]; [Enkvetchakul et al., 2000]; [Ribalet et al., 2006]). This had only a very small effect on our estimates of D and KA (Figure 2—figure supplement 1). The broad distribution of L in our fit may represent current rundown which occurs during our patch-clamp recordings and is expected to affect the open-closed equilibrium.
(§2) In addition to the full MWC-type model we considered alternate models (Figure 2—figure supplement 2). These included a model in which only the first binding event influences the open-closed equilibrium of the channel (single-binding model; Figure 2—figure supplement 2B, Table 3), and an MWC-style model with an additional parameter C to allow for direct negative cooperativity between binding sites (negative cooperativity model; Figure 2—figure supplement 2C, Table 3). The single-binding model yielded very similar parameter estimates to our full MWC-type model (Figure 2—figure supplement 2D, Table 3). This is a consequence of D being so low that even in the MWC-type model most channels are closed when only a single nucleotide is bound. The cooperative model improved our fits, but not enough to justify the inclusion of an additional free parameter (see Discussion).
(§3) The MWC-type models considered (Figure 2 and Figure 2—figure supplement 2) were formulated as follows:(3) F/Fmax=KA[TNPATP](1+KA[TNPATP])^3+LDKA[TNPATP](1+DKA[TNPATP])^3/(1+KA[TNPATP])^4+L(1+DKA[TNPATP])^4 (4) open channels/total channels=L(1+DKA[TNPATP])^4/(1+KA[TNPATP])^4+L(1+DKA[TNPATP])^4
(§4) The first was similar to the MWC-type model, except that the channels close after one molecule of TNP-ATP binding with subsequent binding events having no effect.(7) F/Fmax=LDKA[TNPATP](1+3KA[TNPATP]+3KA2[TNPATP]^2+KA3[TNPATP]^3)+KA[TNPATP](1+KA[TNPATP])^3/L(1+4DKA[TNPATP]+6DKA2[TNPATP]^2+4DKA3[TNPATP]^3+DKA4[TNPATP]^4)+(1+KA[TNPATP])^4 (8) I/Imax=L(1+4DKA[TNPATP]+6DKA2[TNPATP]^2+4DKA3[TNPATP]^3+DKA4[TNPATP]^4)/L(1+4DKA[TNPATP]+6DKA2[TNPATP]^2+4DKA3[TNPATP]^3+DKA4[TNPATP]^4)+(1+KA[TNPATP])^4⋅1+L/L
(§5) The second alternate model was the same as the full MWC model, but with an additional term C describing binding cooperativity between Kir6.2 subunits.(9) F/Fmax=LDKA[TNPATP](1+3CDKA[TNPATP]+3C^2D^2KA2[TNPATP]^2+C^3D^3KA3[TNPATP]^3)+KA[TNPATP](1+3CKA[TNPATP])+3C^2KA2[TNPATP]^2+C^3KA3[TNPATP]^3)/L(1+4DKA[TNPATP]+6CD^2KA2[TNPATP]^2+4C^2D^3KA3[TNPATP]^3+C^3D^4KA4[TNPATP]^4)+1+4KA[TNPATP]+6CKA2[TNPATP]^2+4C^2KA3[TNPATP]^3+C^3KA4[TNPATP]^4 (10) I/Imax=L(1+4DKA[TNPATP]+6CD^2KA2[TNPATP]^2+4C^2D^3KA3[TNPATP]^3+C^3D^4KA4[TNPATP]^4)/L(1+4DKA[TNPATP]+6CD^2KA2[TNPATP]^2+4C^2D^3KA3[TNPATP]^3+C^3D^4KA4[TNPATP]^4)+1+4KA[TNPATP]+6C^2KA2[TNPATP]^2+4C^2KA3[TNPATP]^3+C^3KA4[TNPATP]^4⋅1+L/L […]
(The patch-clamp technique gives a direct electrical read-out from membranes.)

The next assay has as its target T2, Kir6.2*-GFP + SUR-K205A (Homo sapiens, UniProt Q14654).
T2 construct: ANAP labelling is specific and only full-length Kir6.2 is expressed at the cell membrane; expressed in transfected cells; host or cells: HEK-293T
The assay is described as above. The class given is biochemical. The following applies: for Kd: read-out: KA (intrinsic binding affinity to the closed state) (converted).
Excerpt: as §1, §2, §3, §4, §5

In the next assay the target is Kir6.2-GFP + SUR1 (Homo sapiens, UniProt Q14654). Description: Current inhibition in excised inside-out patches. Details: ANAP labelling is specific and only full-length Kir6.2 is expressed at the cell membrane; expressed in transfected cells; host or cells: HEK-293T. The following applies: Mg2+-free, Hill fit. The class given is biochemical. On the procedure:
Currents were measured from patches from cells expressing KATP that were excised in the absence of Mg^2+. Under such conditions, nucleotides can bind to both sites on SUR1, but no activation occurs, allowing inhibitory currents to be measured in isolation ([Gribble et al., 1998]; [Ueda et al., 1999]; [Puljung et al., 2019]).

The target in the next assay is Kir6.2*,C166S-GFP + SUR1 (Homo sapiens, UniProt Q14654, C166S). Description: Current inhibition in excised inside-out patches (patch-clamp fluorometry).
Sequence of Kir6.2*,C166S-GFP + SUR1 (Q14654 whole entry C166S): as the sequence (Q14654 whole entry, stated change not applied) above, with C166S counted along it
Sequence of Kir6.2*,C166S-GFP + SUR1 (Q09428 whole entry partner): as the sequence (Q09428 whole entry K205E partner) above, with E205K counted along it
Setting [1] is: Full MWC model, median estimate.
Where [2] appears, read: Single-site (single-binding) model.

Sequence of Kir6.2-GFP + SUR1 (Q14654 whole entry): as the sequence (Q14654 whole entry, stated change not applied) above
Sequence of Kir6.2-GFP + SUR1 (Q09428 whole entry partner): as the sequence (Q09428 whole entry K205E partner) above, with E205K counted along it
T2 sequence (Q14654 whole entry, stated change not applied): as the sequence (Q14654 whole entry, stated change not applied) above
T2 sequence (Q09428 whole entry K205A partner): as the sequence (Q09428 whole entry K205E partner) above, with E205A counted along it

With `Nc1ncnc2c1ncn2[C@@H]1O[C@H](COP(=O)(O)OP(=O)(O)OP(=O)(O)O)[C@H]2OC3(O[C@H]21)C([N+](=O)[O-])=CC(=[N+]([O-])[O-])C=C3[N+](=O)[O-]` (some centres unmarked) [TNP-ATP, trinitrophenyl-ATP], the “D (factor by which nucleotide binding favours channel closure)” value is 0.62 on Kir6.2*-GFP + SUR-K205E (setting [1]); 0.58 at Kir6.2*-GFP + SUR-K205E (Negative cooperativity model); 0.30 on Kir6.2*-GFP + SUR-K205E (setting [2]); 0.55 on Kir6.2*-GFP + SUR-K205A (setting [1]); 0.52 on Kir6.2*-GFP + SUR-K205A (Negative cooperativity model); 0.18 at Kir6.2*-GFP + SUR-K205A (setting [2]). The “L (unliganded open-closed equilibrium constant)” value at Kir6.2*-GFP + SUR-K205E (setting [1]) is on record as −0.18 log10; at Kir6.2*-GFP + SUR-K205E (setting [2]), −0.19 log10; on Kir6.2*-GFP + SUR-K205A (setting [1]), −0.37 log10; at Kir6.2*-GFP + SUR-K205A (Negative cooperativity model), −0.16 log10; at Kir6.2*-GFP + SUR-K205A (setting [2]) it was −0.25 log10. Further, the Kd at Kir6.2*-GFP + SUR-K205E (setting [1]) was 398 µM; at Kir6.2*-GFP + SUR-K205E (Negative cooperativity model), 195 µM; on Kir6.2*-GFP + SUR-K205E (setting [2]) it was 490 µM; at Kir6.2*-GFP + SUR-K205A (setting [1]), 174 µM; at Kir6.2*-GFP + SUR-K205A (Negative cooperativity model), 79.4 µM; on Kir6.2*-GFP + SUR-K205A (setting [2]) it was 240 µM. The “C (binding cooperativity between Kir6.2 subunits)” value is reported as 0.45 on Kir6.2*-GFP + SUR-K205E (Negative cooperativity model) and 0.35 at Kir6.2*-GFP + SUR-K205A (Negative cooperativity model). Further, the IC50 – broadly, the point on the concentration scale where inhibition reaches its midpoint – was 1.2 µM and 1.17 µM on Kir6.2-GFP + SUR1 (IC50 current inhibition); 776 µM on Kir6.2*,C166S-GFP + SUR1. Moreover, the “h (Hill coefficient) current inhibition” value at Kir6.2-GFP + SUR1 is 1.14; at Kir6.2*,C166S-GFP + SUR1 (excised inside-out patches, Mg2+-free, Hill fit) it was 1.35.
